Laboratory results taken from patent publication US12617744B2, “Production method for reduced coenzyme Q10 form-II type crystal or crystalline solid thereof” (KANEKA CORPORATION, priority 2021, dated 2026).

What was measured:
[1] = Median diameter measurement with particle size distribution analyzer; format: physicochemical; details: reduced coenzyme Q10 crystal obtained; Partica LA-960
Experimental: The median diameters of reduced coenzyme Q10 crystals obtained in Examples and Comparative Example were measured using the device described below. • Particle size distribution analyzer: Partica LA-960 <Percentage of Form II Crystal in Reduced Coenzyme Q10 Crystal>

[2] = Evaluation of slurry filterability by constant pressure filtration (average specific filtration resistance); format: physicochemical; details: slurry cooled to 1° C., filtrate volume 200 mL, filtration pressure 0.1 hPa
Experimental: The slurries obtained in Examples and Comparative Example were subjected to constant pressure filtration with a filtrate volume of 200 mL and a filtration pressure of 0.1 hPa and the filtration rate was measured. The average specific filtration resistance (αav) was calculated and used for the evaluation of filterability.

[3] = compared with conventional reduced coenzyme Q10 Form I crystal; cited from earlier work
[4] = Saturation concentration of crystal forms in alcohol; format: physicochemical; details: Form II crystal compared with Form I crystal
Description: The alcohol is preferably a monohydric alcohol having 1 to 5 carbon atoms. Examples of a monohydric alcohol having 1 to 5 carbon atoms include methanol, ethanol, n-propanol, isopropanol, n-butanol, isobutanol, and n-pentanol. As the alcohol, ethanol is particularly preferable because the saturation concentration of Form II crystal is sufficiently lower than the saturation concentration of Form I crystal and is easy to handle. As the alcohol, those exemplified above may be used alone, or two or more thereof may be mixed and used.

[5] = compared with oxidized coenzyme Q10; cited from earlier work

| Structure (SMILES) | Median diameter [1] [μm] | average specific filtration resistance (αav) [2] | stability of crystal form [3] | saturation concentration in an alcohol [4] | oral absorbability [5] |
| --- | --- | --- | --- | --- | --- |
| COc1c(O)c(C)c(C/C=C(\C)CC/C=C(\C)CC/C=C(\C)CC/C=C(\C)CC/C=C(\C)CC/C=C(\C)CC/C=C(\C)CC/C=C(\C)CC/C=C(\C)CCC=C(C)C)c(O)c1OC [Example 1, reduced coenzyme Q10] | 115.3 | 0.47×10^10 m/kg |  |  |  |
| COc1c(O)c(C)c(C/C=C(\C)CC/C=C(\C)CC/C=C(\C)CC/C=C(\C)CC/C=C(\C)CC/C=C(\C)CC/C=C(\C)CC/C=C(\C)CC/C=C(\C)CCC=C(C)C)c(O)c1OC [reduced coenzyme Q10 Form II crystal, reduced coenzyme Q10] |  |  | much more stable than the conventional reduced coenzyme Q10 | lower than the saturation concentration of a Form I crystal |  |
| COc1c(O)c(C)c(C/C=C(\C)CC/C=C(\C)CC/C=C(\C)CC/C=C(\C)CC/C=C(\C)CC/C=C(\C)CC/C=C(\C)CC/C=C(\C)CC/C=C(\C)CCC=C(C)C)c(O)c1OC [reduced coenzyme Q10] |  |  |  |  | higher oral absorbability than that of oxidized coenzyme Q10 |
| COc1c(O)c(C)c(C/C=C(\C)CC/C=C(\C)CC/C=C(\C)CC/C=C(\C)CC/C=C(\C)CC/C=C(\C)CC/C=C(\C)CC/C=C(\C)CC/C=C(\C)CCC=C(C)C)c(O)c1OC [Example 3, reduced coenzyme Q10] | 107.3 | 0.48×10^10 m/kg |  |  |  |
| COc1c(O)c(C)c(C/C=C(\C)CC/C=C(\C)CC/C=C(\C)CC/C=C(\C)CC/C=C(\C)CC/C=C(\C)CC/C=C(\C)CC/C=C(\C)CC/C=C(\C)CCC=C(C)C)c(O)c1OC [Example 2, reduced coenzyme Q10] | 87.6 | 0.98×10^10 m/kg |  |  |  |
| COc1c(O)c(C)c(C/C=C(\C)CC/C=C(\C)CC/C=C(\C)CC/C=C(\C)CC/C=C(\C)CC/C=C(\C)CC/C=C(\C)CC/C=C(\C)CC/C=C(\C)CCC=C(C)C)c(O)c1OC [Comparative Example 1, reduced coenzyme Q10] | 68.2 | 3.4×10^10 m/kg |  |  |  |
